Source: US20160206604A1, “FORMULATIONS COMPRISING WETTING AGENTS AND COMPOUNDS FOR THE MODULATION OF HEMOGLOBIN (S)” (GLOBAL BLOOD THERAPEUTICS, INC., priority 2013, published 2016)
Values joined by “and” are separate entries in the source; they are usually repeats but may differ in a detail not shown here. Identical values can stand only once. Like-named read-outs stand apart in the source and are kept apart here.

What was measured:
[1] = Pharmacokinetic (PK) properties in rats, oral or intravenous dosing; assay type: in vivo, Rats (Sprague-Dawley); conditions: for blood plasma ratio: male, Sprague-Dawley, rat, whole blood and plasma, po, 10 mg/kg, dosed orally
Description: This experiment was established and used in order to assess the pharmacokinetic (PK) properties of the compounds.
Sample collection and data analysis: Rats (Sprague-Dawley, male, 8-12 weeks old) were dosed with one of three compounds corresponding to compound 12, compound 22 or compound 23. The rats received oral (10 mg/kg) or intravenous (1 mg/kg) doses of the compound. Rats were fasted overnight before the experiments and provided with food after the 2 hour sampling time point.
(§1) Blood samples were collected at different time points. Blood was anti-coagulated by 3.2% TSC (trisodium citrate) and a portion was separated into plasma fraction by centrifugation and removal of blood cells. Plasma and lysed blood samples were analyzed for drug concentration using LC-MS/MS. PK parameters were calculated by non compartmental analysis of the concentration-time profiles using WinNonLin software (Pharsight, Mountain View, Calif.). Apparent elimination half-life (t1/2) values were calculated as ln(2)/k. Area under the concentration-time curve (AUC) values were estimated using the linear trapezoidal method. AUClast values were calculated from the dosing time to the last measurable concentration. AUCinf values were calculated as the sum of the corresponding AUClast and the ratio of the last detectable concentration divided by k. Plasma clearance (Cl) is calculated from Dose/AUCinf. Volume of distribution at steady state (Vss) is calculated from Mean Residence Timeinf×Clss. Maximum concentration (Cmax) and time to Cmax (Tmax) was recorded as observed. The blood/plasma partitioning ratio was calculated at each experimental time point.

[2] = target: T1, HbS/A (Homo sapiens, UniProt P68871+P69905, E7V); assay: R/T assay (relaxed-to-tense transition assay); assay type: biochemical; conditions: for R-T (9 μM)/(delta R), class / R-T (9 μM)/(delta R): 9 μM compound; for R-T (9 μM)/(delta R) / R-T (10 μM)/(delta R): 3 μM HbS/A; for R-T (10 μM)/(delta R), class / R-T (10 μM)/(delta R): 10 μM compound
T1 construct: A mixture of HbS/A was purified from blood obtained from homozygous sickle cell patients; from tissue; host or cells: blood of homozygous sickle cell patients; hemoglobin purified from it
Description: This ability can be expressed as a “delta R” value (i.e., the change in the time-period of the R state after hemoglobin is treated with a compound, as compared to the period without treatment with the compound). Delta R is the % R to remaining after the compounds treatment compared with no treatment (e.g. if R % without treatment is 8% while with treatment with a target compound is 48% R at 30 μM, then % R is 40% for that compound.
A mixture of HbS/A was purified from blood obtained from homozygous sickle cell patients though the Hemoglobinopathy Center at Children's Hospital Oakland Research Institute (CHORI) with Institutional Review Board approval. HbS/A (at a final concentration of 3 μM) was incubated for 1 hr at 37° C. in presence or absence of compounds in […] potassium phosphate buffer, pH=7.4 and 30 μM 2, 3 diphosphoglycerate (DPG) in 96 well plates in a final volume of 160 μl. Compounds were added at different concentrations (3 μM to 100 μM final concentrations). Plates were covered with a Mylar film. After incubation was completed the Mylar cover was removed and the plates were placed in a Spectrostar Nano plate reader previously heated at 37° C. Five minutes later, N2 (flow rate=20 L/min) was flowed through the spectrophotometer. Spectroscopic measurements (300 nm to 700 nm) were taken every 5 min for 2 hours. Data analysis was performed by using linear regression from the data retrieved for all wavelengths.
Results: Table 3 below lists the delta R values where “+” indicates a delta R of between 0 and 30, “++” indicates a delta R of between 30 and 50, and “+++” indicates a delta R of 50 or greater.

[3] = target: T2, HbS (Homo sapiens, UniProt P68871+P69905, E7V); assay: Reverse Hemox assay (oxygen equilibrium curves of whole blood); assay type: cell-based; set-up: Oxygen Equilibrium Curves (OEC) of whole blood before and after treatment; from tissue; host or cells: whole blood (red blood cells) of homozygous sickle cell patients; conditions: 1 mM compound, sickle cell whole blood; for Reverse Hemox (1 mM)/(delta p50%): hematocrit 20%, 1 hour 37° C.
Description: Oxygen Equilibrium Curves (OEC) of whole blood before and after treatment with different concentrations of compounds 12, 22 and 23 were performed as follows using a HEMOX analyzer (TCS Scientific, New Hope, Pa.). Blood samples from homozygous sickle cell patients were obtained though the Hemoglobinopathy Center at Children's Hospital Oakland Research Institute (CHORI) with Institutional Review Board approval. The hematocrit was adjusted to 20% using autologous plasma and the blood samples were incubated for 1 hour at 37° C. in absence or presence of compounds. 100 μl of these samples were added to 5 mL of Hemox buffer (30 mM TES, 130 mM NaCl, 5 mM KCl, pH=7.4) at 37° C. and then transferred to the Hemox sample chamber. The samples were saturated with oxygen by flushing with compressed air for 10 minutes. The samples were then flushed with pure nitrogen and the respective absorbances of oxy- and deoxy-Hb were recorded as a function of the solution pO2. The oxygen equilibrium data were then fitted to the Hill Model to obtain values for p50. The deoxygenation curves for both whole blood alone (control) and whole blood in the presence of the compound were collected with the TCS software.
Results: Table 3 below lists the delta p50% values where “+” indicates a delta p50% of between 0 and 29, “++” indicates a delta p50% of between 30 and 50, and “+++” indicates a delta p50% of 50 or greater.

[4] = target: T2, HbS; assay: Polymerization assay; assay type: biochemical; set-up: HbS is purified by the CRO VIRUSYS, from blood obtained from homozygous sickle cell patients; tissue VIRUSYS (CRO that did the purification); host or cells: blood of homozygous sickle cell patients; conditions: 75 μM compound; for Polymerization (75 μM)/(% DT): 50 μM purified HbS, percent delay time
Description: Polymerization assays are carried out in vitro using purified HBS exchanged into 1.8 M potassium phosphate buffer at pH 7.4. Using a slightly modified protocol (Antonini and Brunori, 1971), HbS is purified by the CRO VIRUSYS, from blood obtained from homozygous sickle cell patients through the Hemoglobinopathy Center at Children's Hospital Oakland Research Institute (CHORI) with Institutional Review Board approval. Compounds are prepared in 100% DMSO and a desired amount is added to 50 μM of purified HbS at a final DMSO concentration of 0.3%. Final potassium phosphate concentration is adjusted to 1.8 M using a combination of 2.5 M potassium phosphate stock solution and water at pH 7.4. The reaction mixture is incubated for an hour at 37° C. and then transferred into a 24-well plate for deoxygenation in a glove box containing 99.5% nitrogen and 0.5% oxygen. The 24-well plate is not covered and incubated at 4° C. on a plate cooler inside the glove box for one and a half hours. Fifty μL of the reaction mixture is transferred into a 96-well plate and the absorbance at 700 nm is measured every minute for one hour at 37° C. in a plate reader located inside the glove box. A plot of the absorbance against time is fitted using a Boltzman sigmoidal fit and the delay time (from zero to time at half Vmax) is measured. To compare and rank compounds, delay times are expressed as percent delay (% DT), which is defined as the difference in delay times for HbS/compound and HbS alone multiplied by 100 and divided by the delay time for HbS alone.
Results: Compounds listed below have been tested in the polymerization assay. Activity ranges are defined by the number of dagger (†) symbols indicated. † denotes activity ≧40% but ≦80%; †† denotes activity >80% but ≦120%; ††† denotes activity >120% but ≦140%; †††† denotes activity >[…].

[5] = Pharmacokinetics of compound 12 following oral administration of compound 53 formulation, rats; conditions: following oral administration 10 mg/kg
[6] = Pharmacokinetics of compound 12 suspension formulation (methylcellulose/sodium dodecyl sulfate), oral, rats; assay type: in vivo, Sprague-Dawley rats
Description: as §1
A suspension of Compound 12 was prepared by triturating 250 mg of compound 12 in a mortar with 2 mL of 0.5% methylcellulose in water and 200 μL of 0.5% sodium dodecyl sulfate. After approximately 5 minutes, the suspension was homogeneous. The volume of the mixture was adjusted to 12.5 mL with 0.5% methylcellulose to obtain a final concentration of 20 mg/mL. To prepare a 10 mg/mL suspension of compound 12, the 20 mg/mL suspension was diluted two-fold with 0.5% methylcellulose.
Pharmacokinetics of compound 12 following an oral administration of compound 12 suspension at 50 mg/kg or 100 mg/kg were studied in male Sprague-Dawley rats (n=3/group) using the method described in Example 1. Maximum blood concentration of compound 12 was achieved within 6 hours. The maximum concentrations at 50 mg/kg and 100 mg/kg compound 12 were 281 μg/mL (903 μM) and 327 μg/mL (1050 μM), respectively.

[7] = target: hemoglobin (Homo sapiens, UniProt P68871+P69905); assay: In vitro system measuring binding to hemoglobin and human serum albumin; conditions: both proteins present in their respective physiologic ratio
Description: However, when the red blood cell compartment is considered, compound 12 unexpectedly partitions into blood to a far greater extent than compound 22 or compound 23. […] When the red blood cell/plasma ratio was measured at the peak concentration, compound 12 partitioned at a ratio of 70 to 1 into the erythrocytes attesting to its preferential partition into the compartment which contains the drug target hemoglobin. Supportive data was reported in an in vitro system measuring binding of compound 12 to hemoglobin and human serum albumin.

[8] = overall exposure, read-out: Blood/plasma (Ratio of exposure AUCINF)

In the case of `COc1cc(C=O)c(OCc2cccnc2-c2ccnn2CC(F)F)cn1` [Compound 22, 5-[[2-[2-(2,2-difluoroethyl)pyrazol-3-yl]pyridin-3-yl]methoxy]-2-methoxypyridine-4-carbaldehyde], the blood plasma ratio [1, 8] is reported as 5, the “R-T (9 μM)/(delta R), class” value [2] is reported as “++ (“++” indicates a delta R of between 30 and 50)” and the “R-T (9 μM)/(delta R)” value [2] is reported as 31.02. The “R-T (10 μM)/(delta R), class” value [2] was “++ (“++” indicates a delta R of between 30 and 50)”, the “R-T (10 μM)/(delta R)” value [2] was 36.25 and the “Reverse Hemox (1 mM)/(delta p50%), class” value [3] was “+++ (“+++” indicates a delta p50% of 50 or greater)”. For the same compound, the “Reverse Hemox (1 mM)/(delta p50%)” value [3] was 68.69%, the “Polymerization (75 μM)/(% DT), class” value [4] was “†† (†† denotes activity >80% but ≦120%)” and the “Polymerization (75 μM)/(% DT)” value [4] was 90.22%.
In the case of `CC(C)n1nccc1-c1ncccc1COc1cccc(OP(=O)(O)O)c1C=O` [Compound 53, 2-formyl-3-((2-(1-isopropyl-1H-pyrazol-5-yl)pyridin-3-yl)methoxy)phenyl dihydrogen phosphate], the “in vivo conversion of prodrug” value [5] is reported as “converted to compound 12”.
In the case of `COc1cc(C=O)c(OCc2cccnc2-c2ccccc2C)cn1` [Compound 23, 2-methoxy-5-[[2-(2-methylphenyl)pyridin-3-yl]methoxy]pyridine-4-carbaldehyde], the blood plasma ratio ([1]; at Cmax, read-out: Blood/plasma (Ratio of peak concentration)) is reported as 3, the blood plasma ratio [1, 8] is reported as 1 and the “R-T (9 μM)/(delta R), class” value [2] is reported as “++ (“++” indicates a delta R of between 30 and 50)”. The “R-T (9 μM)/(delta R)” value [2] was 37.15, the “R-T (10 μM)/(delta R), class” value [2] was “+++ (“+++” indicates a delta R of 50 or greater)” and the “R-T (10 μM)/(delta R)” value [2] was 51.55. The “Reverse Hemox (1 mM)/(delta p50%), class” value [3] was “+++ (“+++” indicates a delta p50% of 50 or greater)”, the “Reverse Hemox (1 mM)/(delta p50%)” value [3] was 72.45% and the “Polymerization (75 μM)/(% DT), class” value [4] was “†† (†† denotes activity >80% but ≦120%)”. For the same compound, the “Polymerization (75 μM)/(% DT)” value [4] was 98.19%.
For `CC(C)n1nccc1-c1ncccc1COc1cccc(O)c1C=O` [Compound 12, 2-hydroxy-6-[[2-(2-propan-2-ylpyrazol-3-yl)pyridin-3-yl]methoxy]benzaldehyde], the “red blood cell/plasma ratio at the peak concentration” value ([1]; ratio to 1 into erythrocytes) was 70, the “R-T (9 μM)/(delta R), class” value [2] was “+++ (“+++” indicates a delta R of 50 or greater)” and the “R-T (9 μM)/(delta R)” value [2] was 65.45. The “R-T (10 μM)/(delta R), class” value [2] was “+++ (“+++” indicates a delta R of 50 or greater)”, the “R-T (10 μM)/(delta R)” value [2] was 62.75 and the AUC(0-inf) ([6]; male, Sprague-Dawley, rat, blood, oral suspension 50 mg/kg) was 7340 µg·h/mL. For the same compound, the half-life ([6]; male, Sprague-Dawley, rat, blood, oral suspension 50 mg/kg or 100 mg/kg, read-out: mean terminal half-life) was 16 to 19 h, the AUC(0-inf) ([6]; male, Sprague-Dawley, rat, blood, oral suspension 100 mg/kg) was 9460 µg·h/mL and the “time to maximum blood concentration” value ([6]; oral suspension 50 mg/kg or 100 mg/kg) was at most 6 h. For the same compound, the maximum concentration ([6]; oral suspension 50 mg/kg, blood) was 281 μg/mL and 903 μM, the maximum concentration ([6]; oral suspension 100 mg/kg, blood) was 327 μg/mL and 1050 μM and the “binding to hemoglobin versus human serum albumin” value [7] was “preferentially binding to hemoglobin”. The “Reverse Hemox (1 mM)/(delta p50%), class” value [3] was “+++ (“+++” indicates a delta p50% of 50 or greater)”, the “Reverse Hemox (1 mM)/(delta p50%)” value [3] was 79.83% and the “Polymerization (75 μM)/(% DT), class” value [4] was “†† (†† denotes activity >80% but ≦120%)”. For the same compound, the “Polymerization (75 μM)/(% DT)” value [4] was 108.56%.
